Test results as given in patent US9107411B2, “Indolecarboxamides and benzimidazolecarboxamides as insecticides and acaricides” (BAYER INTELLECTUAL PROPERTY GMBH, priority 2011, dated 2015).

Experiments:
Lucilia cuprina larvae = test: Lucilia cuprina test (LUCICU); type: in vivo; details: application rate 100 ppm; treated horse meat; after 2 days
In short: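 Mortality scored as percent of larvae killed 2 days after exposure. Horse meat was treated with the compound, formulated from DMSO stock diluted with water to the test concentration, and populated with roughly 20 larvae.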

Myzus persicae = test: Myzus test (MYZUPE spray treatment); type: in vivo; details: Chinese cabbage leaf discs, after 6 days
Experimental: Myzus Test (MYZUPE Spray Treatment) Solvent: 78 parts by weight of acetone • • 1.5 parts by weight of dimethylformamide Emulsifier: 0.5 part by weight of alkylaryl polyglycol ether To produce an appropriate active ingredient formulation, 1 part by weight of active ingredient is mixed with the stated amounts of solvent and emulsifier, and the concentrate is diluted with emulsifier-containing water to the desired concentration. Leaf discs of Chinese cabbage (Brassica pekinensis) infested by all stages of the green peach aphid (Myzus persicae) are sprayed with an active ingredient formulation of the desired concentration. After 6 days, the efficacy in % is determined. 100% means that all of the aphids have been killed; 0% means that none of the aphids have been killed.

Phaedon cochleariae = test: Phaedon test (PHAECO spray treatment); type: in vivo; details: Chinese cabbage leaf discs, after 7 days
In short: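 Larval mortality was assessed 7 days after Phaedon cochleariae larvae were placed on dried, spray-treated Brassica pekinensis leaf discs. The formulation was an acetone/dimethylformamide concentrate with alkylaryl polyglycol ether emulsifier, diluted in emulsifier-containing water. Results are given as % kill, from 0 (no larvae dead) to 100 (all dead).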

adult Musca domestica = test: Musca domestica test (MUSCDO); type: in vivo; details: application rate 100 ppm; treated sponge; after 2 days
Experimental: Musca domestica Test (MUSCDO) Solvent: dimethyl sulphoxide To prepare an appropriate active ingredient formulation, 10 mg of active ingredient are mixed with 0.5 ml of dimethyl sulphoxide and the concentrate is diluted with water to the desired concentration. Vessels containing a sponge treated with the active ingredient formulation of the desired concentration are populated with adult Musca domestica. After 2 days, the kill in % is determined 100% means that all of the flies have been killed; 0% means that none of the flies have been killed.

Spodoptera frugiperda = Spodoptera frugiperda test (SPODFR spray treatment); type: in vivo; details: maize leaf discs, after 7 days
In short: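 Mortality read-out at 7 days, given as % efficacy, where 100% means every caterpillar dead and 0% none. Caterpillars were placed on dried maize leaf discs that had been sprayed with test formulation. That formulation was an acetone/dimethylformamide concentrate diluted in emulsifier-containing water.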

logP (HPLC-MS) = type: physicochemical; details: HPLC, reversed-phase column (C18), 43° C.
Tetranychus urticae = test: Tetranychus test, OP-resistant (TETRUR spray treatment); type: in vivo; details: bean leaf discs, after 6 days
In short: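 Bean leaf discs infested with all stages of OP-resistant T. urticae sprayed with compound formulated in acetone/DMF plus alkylaryl polyglycol ether emulsifier, diluted in water. Efficacy (% mites killed) scored after 6 days.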

Boophilus microplus = Boophilus microplus test (BOOPMI injection); type: in vivo; details: application rate 20 μg/animal; injected into the abdomen; after 7 days
In short: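 Read-out after 7 days is % efficacy, judged by fertile egg laying, with 100% meaning no fertile eggs from any tick. Compound was given by abdominal injection as a DMSO solution diluted to the desired concentration. Treated ticks were held in dishes in a climate-controlled room.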

Ctenocephalides felis = Ctenocephalides felis oral (CTECFE); type: in vivo; details: application rate 100 ppm in citrated cattle blood; after 2 days
In short: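 Readout is percent mortality after 2 days (0–100%) in roughly 20 unfed adult fleas. The fleas had imbibed citrated cattle blood dosed with compound through Parafilm, with the compound diluted from a DMSO concentrate.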

[1] = system: adult engorged Boophilus microplus females of the SP-resistant Parkhurst strain; test: Boophilus microplus test (DIP); type: in vivo; details: application rate 100 ppm, after 7 days
Experimental: Boophilus microplus Test (DIP)
Test animals: adult engorged Boophilus microplus females of the SP-resistant Parkhurst strain
Solvent: dimethyl sulphoxide
10 mg of active ingredient are dissolved in 0.5 ml of dimethyl sulphoxide. For the purpose of preparing a suitable formulation, the active ingredient solution is diluted with water to the concentration desired in each case.
This active ingredient formulation is pipetted into tubes. 8-10 ticks are transferred into a further tube with holes. The tube is immersed into the active ingredient formulation, and all ticks are completely wetted. After the liquid has run out, the ticks are transferred onto filter discs in plastic dishes and stored in a climate-controlled room.
The activity is assessed after 7 days by laying of fertile eggs. Eggs whose fertility is not outwardly visible are stored in glass tubes in a climate-controlled cabinet until the larvae hatch. An efficacy of 100% means that none of the ticks has laid any fertile eggs.

[2] = acidic range pH 2.7, acetonitrile (0.1% formic acid)/water gradient, calibration with unbranched alkan-2-ones
[3] = acidic range pH 2.7, EEC directive 79/831 Annex V.A8, two values = both regioisomers (G = N)

| SMILES | efficacy (kill in %) (Lucilia cuprina larvae) [%] | efficacy in % (Myzus persicae; application rate 100 g/ha) [%] | efficacy in % (Phaedon cochleariae; application rate 100 g/ha) [%] | efficacy (kill in %) (adult Musca domestica) [%] | efficacy in % (Spodoptera frugiperda; application rate 100 g/ha) [%] | log p (logP (HPLC-MS); [2]) | efficacy in % (Tetranychus urticae; application rate 100 g/ha) [%] | efficacy (laying of fertile eggs) (Boophilus microplus) [%] | efficacy (kill in %) (Ctenocephalides felis) [%] | efficacy (laying of fertile eggs) [1] [%] | efficacy in % (Myzus persicae; application rate 500 g/ha) [%] | efficacy in % (Phaedon cochleariae; application rate 500 g/ha) [%] | efficacy in % (Spodoptera frugiperda; application rate 500 g/ha) [%] | efficacy in % (Tetranychus urticae; application rate 500 g/ha) [%] | log p (logP (HPLC-MS); [3]) |
| --- | --- | --- | --- | --- | --- | --- | --- | --- | --- | --- | --- | --- | --- | --- | --- |
| CCn1c(C(=O)NC(c2ccc(F)c(Br)c2)C(F)(F)F)cc2cc(C(=O)NC3CC3)c(Cl)cc21 (centres unmarked) [Compound 12] | 100 | 90 | 100 | 100 | 100 | 3.82 | 100 | 100 | 100 | – | – | – | – | – | – |
| CCn1c(C(=O)NC(c2ccc(F)c(Cl)c2)C(F)(F)F)cc2cc(C(=O)NC3CC3)c(Cl)cc21 (centres unmarked) [Compound 18] | 100 | – | 100 | 100 | 100 | 3.82 | 90 | 100 | 100 | 80 | – | – | – | – | – |
| CCn1c(C(=O)NC(c2ccc(F)c(Cl)c2)C(F)(F)F)nc2cc(C(=O)NC3CC3)c(Cl)cc21 (centres unmarked) [Compound 37] | 100 | – | – | 100 | – | 3.59 | – | 100 | 100 | – | 90 | 100 | 100 | 100 | – |
| CCn1c(C(=O)NC(c2ccc(F)c(C(F)(F)F)c2)C(F)(F)F)nc2cc(C(=O)NC3CC3)c(Cl)cc21 (centres unmarked) [Compound 38] | 100 | 100 | – | 100 | – | 3.71 | – | 100 | 100 | – | 90 | 100 | 100 | 100 | – |
| CCn1c(C(=O)NC(c2cccc(Br)c2)C(F)(F)F)cc2cc(C(=O)NC3CC3)c(Cl)cc21 (centres unmarked) [Compound 40] | 100 | 90 | 100 | – | 100 | 3.71 | 100 | 100 | 100 | – | – | – | – | – | – |
| Cn1c(C(=O)NC(c2ccc(F)c(Cl)c2)C(F)(F)F)cc2cc(C(=O)NC3(C#N)CC3)c(Cl)cc21 (centres unmarked) [Compound 54] | 100 | 100 | 100 | 100 | 100 | 3.52 | 100 | 100 | 100 | – | – | – | – | – | – |
| C#CCn1c(C(=O)NC(c2ccc(F)c(C(F)(F)F)c2)C(F)(F)F)nc2cc(C(=O)NC3CC3)c(Cl)cc21 (centres unmarked) [Compound 97] | 100 | 100 | – | 100 | – | 3.62 | – | 100 | 95 | – | – | 100 | 100 | 100 | – |
| CCn1c(C(=O)NC(c2ccc(F)c(Br)c2)C(F)(F)F)cc2cc(C(=O)NC3(C#N)CC3)c(C)cc21 (centres unmarked) [Compound 191] | 100 | 90 | 100 | 90 | 100 | 3.71 | 100 | 100 | 100 | – | – | – | – | – | – |
| CCn1c(C(=O)NC(c2ccc(F)c(Cl)c2)C(F)(F)F)cc2cc(C(=O)NC3CC3)c(C)cc21 (centres unmarked) [Compound 192] | 100 | 90 | 100 | 100 | 100 | 3.65 | 100 | 100 | 100 | – | – | – | – | – | – |
| CCn1c(C(=O)NC(c2cccc(OC(F)F)c2)C(F)(F)F)cc2cc(C(=O)NC3CC3)c(Cl)cc21 (centres unmarked) [Compound 276] | 100 | 90 | 100 | 100 | 100 | 3.48 | 90 | 100 | 100 | – | – | – | – | – | – |
| CCc1cc2c(cc1C(=O)NC1(C#N)CC1)cc(C(=O)NC(c1cccc(C(F)(F)F)c1)C(F)(F)F)n2CC (centres unmarked) [Compound 282] | 100 | 80 | 100 | 90 | 100 | – | 100 | 100 | 100 | – | – | – | – | – | 3.98 |
| O=C(NC1CC1)c1cc2nc(C(=O)NC(c3ccc(F)c(C(F)(F)F)c3)C(F)(F)F)n(C3CC3)c2cc1Br (centres unmarked) [Compound 300] | – | 100 | – | – | – | – | – | – | – | – | – | 100 | 100 | 100 | 3.59 |
| C=CCN(C(=O)c1cc2nc(C(=O)NC(c3ccc(F)c(Cl)c3)C(F)(F)F)n(CC=C)c2cc1Cl)C1CC1 (centres unmarked) [Compound 303] | – | 90 | – | – | – | – | – | – | – | – | – | 100 | 100 | 100 | 4.75 |
| CCn1c(C(=O)NC(c2cc(Cl)c(F)c(Cl)c2)C(F)(F)F)cc2cc(C(=O)NC3(C#N)CC3)c(Cl)cc21 (centres unmarked) [Compound 311] | – | 90 | 100 | – | 100 | – | 100 | – | – | – | – | – | – | – | 4.19 |
| O=C(NC1CC1)c1cc2nc(C(=O)NC(c3ccc(F)c(C(F)(F)F)c3)C(F)(F)F)n(C3CC3)c2cc1Cl (centres unmarked) [Compound 313] | – | – | – | – | – | – | – | – | – | – | 90 | 100 | 100 | 90 | 3.38 |
| O=C(NC1CC1)c1cc2nc(C(=O)NC(c3cccc(Br)c3)C(F)(F)F)n(C3CC3)c2cc1Cl (centres unmarked) [Compound 314] | – | 90 | 100 | – | 100 | – | 90 | – | – | – | – | – | – | – | 3.43 |
| CCn1c(C(=O)NC(c2ccc(F)c(F)c2)C(F)(F)F)cc2cc(C(=O)NC3(C#N)CC3)c(Cl)cc21 (centres unmarked) [Compound 315] | – | 90 | 100 | – | 100 | – | 100 | – | – | – | – | – | – | – | 3.47 |
| CCn1c(C(=O)NC(c2ccc(Cl)c(Cl)c2)C(F)(F)F)cc2cc(C(=O)NC3(C#N)CC3)c(Cl)cc21 (centres unmarked) [Compound 316] | – | 90 | 100 | – | 100 | – | 100 | – | – | – | – | – | – | – | 4.06 |
